# Results as given in patent publication US8796245B2 (TetraPhase Pharmaceuticals, Inc., priority 2008, dated 2014).
# Read-outs that look alike come from different tables or passages of the source.
# Legend:
# Format in all cases: cell-based
# [1] = system: K. pneumoniae KP153 (tet resistant: tetA efflux); test: microbe, parasite or virus in culture; settings: Klebsiella pneumoniae, read-out: MICs KP153
# Protocol: (§1) Frozen bacterial strains were thawed and subcultured onto Mueller Hinton Broth (MHB) or other appropriate media (Streptococcus requires blood and Haemophilus requires hemin and NAD). Following incubation overnight, the strains were subcultured onto Mueller Hinton Agar and again incubated overnight. […] Isolated colonies were selected to prepare a starting inoculum equivalent to a 0.5 McFarland standard. The starting inoculum was diluted 1:125 using MHB for further use. Test compounds were prepared by dilution in sterile water to a final concentration of 5.128 mg/mL. Antibiotics (stored frozen, thawed and used within 3 hours of thawing) and compounds were further diluted to the desired working concentrations.
# (§2) The assays were run as follows. Fifty μL of MHB was added to wells 2-12 of a 96-well plate. One hundred […] of appropriately diluted antibiotics was added to well 1. Fifty μL of antibiotics was removed from well 1 and added to well 2 and the contents of well 2 mixed by pipetting up and down five times. Fifty μL of the mixture in well 2 was removed and added to well 3 and mixed as above. Serial dilutions were continued in the same manner through well 12. Fifty μL was removed from well 12 so that all contained 50 μL. Fifty μL of the working inoculum was then added to all test wells. A growth control well was prepared by adding 50 μL of working inoculum and 50 μL of MHB to an empty well. The plates were then incubated at 37° C. overnight, removed from the incubator and each well was read on a plate reading mirror. The lowest concentration (MIC) of test compound that inhibited the growth of the bacteria was recorded.
# [2] = system: S. aureus SA158 (tet resistant: tetK efflux); test: microbe, parasite or virus in culture; settings: Staphylococcus aureus, read-out: MICs SA158
# Protocol: as §1, §2
# [3] = system: E. coli EC155 (tet resistant: tetA efflux); test: microbe, parasite or virus in culture
# Protocol: as §1, §2
# [4] = system: P. aeruginosa ATCC 27853 (PA111); test: Minimum inhibitory concentration assay, PA111
# Protocol: as §1, §2
# [5] = system: S. pneumoniae ATCC 49619 (SP106); test: Minimum inhibitory concentration assay, SP106; settings: Streptococcus pneumoniae, ATCC49619; S. pneumoniae ATCC 49619, wt; read-out: MICs SP106
# Protocol: as §1, §2
# [6] = system: E. faecalis EF159 (tet resistant: tetM); test: Minimum inhibitory concentration assay, EF159; settings: Enterococcus faecalis, read-out: MICs EF159
# Protocol: as §1, §2
# [7] = system: K. pneumoniae ATCC 13883 (KP109); test: Minimum inhibitory concentration assay, KP109; settings: Klebsiella pneumoniae, ATCC13883; K. pneumoniae ATCC 13883, wt; read-out: MICs KP109
# Protocol: as §1, §2
# [8] = system: S. aureus ATCC 29213 (SA101, MSSA); test: Minimum inhibitory concentration assay, SA101; settings: for MIC: Staphylococcus aureus, S. aureus ATCC 29213, MSSA control, read-out: MICs SA101; for MIC SA101 29213: control compounds, numeric MIC, 0.016 means 0.016 or lower
# Protocol: as §1, §2
# [9] = system: E. cloacae ATCC 13047 (EC108); test: Minimum inhibitory concentration assay, EC108
# Protocol: as §1, §2
# [10] = system: S. aureus SA161 (tet resistant: tet(M) ribosomal protection); test: Minimum inhibitory concentration assay, SA161; settings: Staphylococcus aureus, read-out: MICs SA161
# Protocol: as §1, §2
# [11] = system: E. coli ATCC 25922 (EC107); test: Minimum inhibitory concentration assay, EC107; settings: Escherichia coli, ATCC25922; E. coli ATCC 25922, wt; read-out: MICs EC107
# Protocol: as §1, §2
# [12] = system: S. aureus ATCC 13709 (SA100, MSSA, Smith strain); test: Minimum inhibitory concentration assay, SA100; settings: Staphylococcus aureus; S. aureus ATCC 13709, MSSA Smith strain; read-out: MICs SA100
# Protocol: as §1, §2
# [13] = system: S. pneumoniae SP160 (tet resistant: tet M); test: Minimum inhibitory concentration assay, SP160; settings: Streptococcus pneumoniae, read-out: MICs SP160
# Protocol: as §1, §2
# [14] = system: A. baumanii ATCC 19606 (AB110); test: Minimum inhibitory concentration assay, AB110
# Protocol: as §1, §2
# [15] = system: E. faecalis ATCC 29212 (EF103); test: Minimum inhibitory concentration assay, EF103; settings: Enterococcus faecalis, ATCC29212, read-out: MICs EF103
# Protocol: as §1, §2
# [16] = Escherichia coli, E. coli tet resistant: tetA (efflux), read-out: MICs EC155
# [17] = Pseudomonas aeruginosa, ATCC27853, P. aeruginosa ATCC 27853, wt, read-out: MICs PA111
# [18] = Enterobacter cloacae, ATCC13047, E. cloacae ATCC 13047, wt, read-out: MICs EC108
# [19] = Acinetobacter baumannii, ATCC19606, A. baumanii ATCC 19606, wt, read-out: MICs AB110
# [20] = EC155 tetA, control compounds, numeric
# [21] = PA111, control compounds, numeric
# [22] = EC108, control compounds, numeric
# [23] = AB110, control compounds, numeric
SMILES,MIC [1] [µg/mL],MIC [2] [µg/mL],"MIC [3, 16] [µg/mL]","MIC [4, 17] [µg/mL]",MIC [5] [µg/mL],MIC [6] [µg/mL],MIC [7] [µg/mL],MIC [8] [µg/mL],"MIC [9, 18] [µg/mL]",MIC [10] [µg/mL],MIC [11] [µg/mL],MIC [12] [µg/mL],MIC [13] [µg/mL],"MIC [14, 19] [µg/mL]",MIC [15] [µg/mL],"MIC [3, 20] [µg/mL]","MIC [4, 21] [µg/mL]",MIC SA101 29213 [8] [µg/mL],"MIC [9, 22] [µg/mL]","MIC [14, 23] [µg/mL]"
CN(C)[C@@H]1C(O)=C(C(N)=O)C(=O)[C@@]2(O)C(O)=C3C(=O)c4c(O)c(NC(=O)CNCC(C)(C)C)cc(F)c4C[C@H]3C[C@@H]12 [Compound 15],4,0.25,4,16,0.016,0.5,2,0.5,4,0.5,1,0.5,0.016,0.125,0.5,–,–,–,–,–
CCCN(C)CC(=O)Nc1cc(F)c2c(c1O)C(=O)C1=C(O)[C@]3(O)C(=O)C(C(N)=O)=C(O)[C@@H](N(C)C)[C@@H]3C[C@@H]1C2 [Compound 28],16,1,16,> 32,0.125,1,4,1,8,2,2,2,0.0625,0.5,1,–,–,–,–,–
CC(C)CNCC(=O)Nc1cc(F)c2c(c1O)C(=O)C1=C(O)[C@]3(O)C(=O)C(C(N)=O)=C(O)[C@@H](N(C)C)[C@@H]3C[C@@H]1C2 [Compound 19],4,0.25,4,16,≤ 0.0156,0.125,1,0.125,2,0.25,0.25,0.25,≤ 0.0156,0.25,≤ 0.0156,–,–,–,–,–
CN(C)[C@@H]1C(O)=C(C(N)=O)C(=O)[C@@]2(O)C(O)=C3C(=O)c4c(O)c(NC(=O)CNc5ccccc5)cc(F)c4C[C@H]3C[C@@H]12 [Compound 30],> 32,2,> 32,> 32,2,2,> 32,2,> 32,4,> 32,1,4,8,2,–,–,–,–,–
CN(C)[C@@H]1C(O)=C(C(N)=O)C(=O)[C@@]2(O)C(O)=C3C(=O)c4c(O)c(NC(=O)CN5CC[C@H](F)C5)cc(F)c4C[C@H]3C[C@@H]12 [Compound 36],32,1,32,> 32,≤ 0.0156,0.25,4,0.25,4,0.5,2,0.5,≤ 0.0156,0.125,0.25,–,–,–,–,–
CCCCCCCNCC(=O)Nc1cc(F)c2c(c1O)C(=O)C1=C(O)[C@]3(O)C(=O)C(C(N)=O)=C(O)[C@@H](N(C)C)[C@@H]3C[C@@H]1C2 [Compound 29],8,2,8,> 32,1,2,8,4,8,4,8,4,1,8,2,–,–,–,–,–
CN(C)CC(=O)Nc1cc(F)c2c(c1O)C(=O)C1=C(O)[C@]3(O)C(=O)C(C(N)=O)=C(O)[C@@H](N(C)C)[C@@H]3C[C@@H]1C2 [Compound 23],8,0.25,8,8,≤ 0.0156,0.0313,0.5,≤ 0.0156,1,0.125,0.125,0.5,≤ 0.0156,0.125,≤ 0.0156,–,–,–,–,–
CCCNCC(=O)Nc1cc(F)c2c(c1O)C(=O)C1=C(O)[C@]3(O)C(=O)C(C(N)=O)=C(O)[C@@H](N(C)C)[C@@H]3C[C@@H]1C2 [Compound 12],4,0.5,8,16,≤ 0.0156,0.0625,1,≤ 0.0156,1,0.125,0.25,≤ 0.0156,≤ 0.0156,1,≤ 0.0156,–,–,–,–,–
CN(C)[C@@H]1C(O)=C(C(N)=O)C(=O)[C@@]2(O)C(O)=C3C(=O)c4c(O)c(NC(=O)CNCC5CC5)cc(F)c4C[C@H]3C[C@@H]12 [Compound 20],4,0.5,8,8,≤ 0.0156,0.0625,1,≤ 0.0156,1,0.25,0.25,0.25,≤ 0.0156,1,≤ 0.0156,–,–,–,–,–
CN(C)[C@@H]1C(O)=C(C(N)=O)C(=O)[C@@]2(O)C(O)=C3C(=O)c4c(O)c(NC(=O)CN5CC6CCCC6C5)cc(F)c4C[C@H]3C[C@@H]12 (some centres unmarked) [Compound 45],4,0.5,2,> 32,0.125,0.5,2,0.5,4,1,1,0.5,0.06,0.06,0.25,–,–,–,–,–
CN(C)c1cc(NC(=O)CNC(C)(C)C)c(O)c2c1C[C@H]1C[C@H]3[C@H](N(C)C)C(O)=C(C(N)=O)C(=O)[C@@]3(O)C(O)=C1C2=O [Tigecycline],–,–,–,–,–,–,–,–,–,–,–,–,–,–,–,0.5,8,0.06,0.25,0.25
CN(C)c1ccc(O)c2c1C[C@H]1C[C@H]3[C@H](N(C)C)C(O)=C(C(N)=O)C(=O)[C@@]3(O)C(O)=C1C2=O [Minocycline],–,–,–,–,–,–,–,–,–,–,–,–,–,–,–,–,16,0.06,2,0.06
CN(C)[C@@H]1C(O)=C(C(N)=O)C(=O)[C@@]2(O)C(O)=C3C(=O)c4c(O)c(NC(=O)CN5CCCC5)cc(F)c4C[C@H]3C[C@@H]12 [Compound 34],2,0.125,2,16,≤ 0.0156,≤ 0.0156,0.5,≤ 0.0156,1,0.0625,0.25,0.0625,≤ 0.0156,0.125,≤ 0.0156,–,–,–,–,–
CN(C)[C@@H]1C(O)=C(C(N)=O)C(=O)[C@@]2(O)C(O)=C3C(=O)c4c(O)cccc4C[C@H]3C[C@@H]12 [Sancycline],–,–,–,–,–,–,–,–,–,–,–,–,–,–,–,32,> 32,0.5,8,0.25
